# Laboratory results: EP0001503A1, “Antithrombotic compositions containing benzisothiazolones” (BEECHAM GROUP PLC, priority 1977, dated 1979)
# Counter-ions that a name gives are not always drawn. Marks after values point to notes of the source that are not given here.
# Key:
# [1] = test system: platelet aggregation (collagen); assay: Inhibition of collagen-induced platelet aggregation, guinea pig ex vivo (turbidimetric, PRP); format: in vivo; details: p.o.
# Method: (§1) These compounds were tested for inhibition of platelet aggregation alone and in combination with certain anti-inflammatory agents, in the guinea pig ex vivo by the following method: • Ten male guinea pigs weighing 250-300 g were orally dosed 1% methyl cellulose (5 ml/kg) in which the compound under test was suspended. Ten control animals were given methyl cellulose alone. […] Platelet-rich- plasma (PRP) was prepared from each blood sample by centrifigation at 450 g to 5 min. The platelet concentration in each sample or PRP was adjusted with auto- logous platelet-poor-plasma to give a count of […] PRP. Aggregation was measured turbido- metrically (G.V.R. Born, 1962, Nature, 194, 927-929) at 39° using a Bryston aggregometer coupled to a penrecorder. The concentration of callogen producing approximately 50% maximal aggregation and the concentration of ADP producing first-phase aggregation were compared in PRP samples from control and drug treated animals.
# (§2) In the tables the dose ratio represents the ratio of the concentration of aggregating agent to cause aggregation in PRP from drug-treated animals to the concentration of aggregating agent to cause aggregation in PRP from control animals.
# [2] = test system: platelet aggregation (ADP); assay: Inhibition of ADP-induced platelet aggregation, guinea pig ex vivo (turbidimetric, PRP); format: in vivo; details: p.o.
# Method: as §1, §2
# [3] = Table 1, PRP 2 h after dosing, mmol(mg)/kg: Aspirin 0.15 (27), Compound A 0.08 (20), combination 0.15 (27)+0.08 (20)
# [4] = Table 2, 2 h, mmol(mg)/kg: Aspirin 0.15 (27), Compound B 0.08 (22), combination 0.15 (27)+0.08 (22)
# [5] = Table 4, 2 h, mmol(mg)/kg: Aspirin 0.15 (27), Compound C 0.6 (217), combination 0.15 (27)+0.6 (217)
# [6] = Table 5, 2 h, mmol(mg)/kg: Aspirin 0.15 (27), Compound D 0.08 (31), combination 0.08 (31)+0.15 (27)
# [7] = Table 6, 2 h, mmol(mg)/kg: Aspirin 0.15 (27), Compound D 0.15 (59), Compound D Aspirinate Salt 0.15 (88)
# [8] = Table 1, ADP 0.5μM, 2 h, mmol(mg)/kg: Aspirin 0.15 (27), Compound A 0.08 (20), combination 0.15 (27)+0.08 (20)
# [9] = Table 1, 2 h, mmol(mg)/kg: Aspirin 0.15 (27), Compound A 0.08 (20), combination 0.15 (27)+0.08 (20)
# [10] = Table 2, ADP 0.5μM, 2 h, mmol(mg)/kg: Aspirin 0.15 (27), Compound B 0.08 (22), combination 0.15 (27)+0.08 (22)
# [11] = Table 4, ADP 0.5μM, 2 h, mmol(mg)/kg: Aspirin 0.15 (27), Compound C 0.6 (217), combination 0.15 (27)+0.6 (217)
# [12] = Table 5, ADP 0.5µM, 2 h, mmol(mg)/kg: Aspirin 0.15 (27), Compound D 0.08 (31), combination 0.08 (31)+0.15 (27)
# [13] = Table 6, ADP 0.5µM, 2 h, mmol(mg)/kg: Aspirin 0.15 (27), Compound D 0.15 (59), Compound D Aspirinate Salt 0.15 (88)
# [14] = Table 3, 2 h, mmol(mg)/kg: Indomethacin 0.003 (1), Compound B 0.08 (22), combination 0.003 (1)+0.08 (22)
# [15] = Table 3, ADP 0.5µM, 2 h, mmol(mg)/kg: Indomethacin 0.003 (1), Compound B 0.08 (22), combination 0.003 (1)+0.08 (22)
compound,measurement,setting,value
"CC(=O)Oc1ccccc1C(=O)O [Aspirin, aspirin, reference compound]",Dose-ratio vs. Coll.,[1]; [3],2.2*
same,Dose-ratio vs. Coll.,[1]; [4],2.2*
same,Dose-ratio vs. Coll.,[1]; [5],2.2*
same,Dose-ratio vs. Coll.,[1]; [6],2.2*
same,Dose-ratio vs. Coll.,[1]; [7],2.2*
same,% Inhibition of ADP (0.5µM),[2]; [8],16%
same,% Inhibition of ADP 1μM,[2]; [9],0%
same,Dose-ratio vs. ADP,[2]; [3],1.3
same,% Inhibition of ADP (0.5µM),[2]; [10],0%
same,Dose-ratio vs. ADP,[2]; [4],1.3
same,% Inhibition of ADP (0.5µM),[2]; [11],0%
same,Dose-ratio vs. ADP,[2]; [5],1.3
same,% Inhibition of ADP (0.5µM),[2]; [12],0%
same,Dose-ratio vs. ADP,[2]; [6],1.3
same,% Inhibition of ADP (0.5µM),[2]; [13],0%
same,Dose-ratio vs. ADP,[2]; [7],1.3
"O=c1c2ccccc2sn1CCN1CCCCC1 [Compound A, 2-[2-(1-piperidyl)ethyl] 1,2-benzisothiazol-3-one]",Dose-ratio vs. Coll.,[1]; [3],8.3*
same,% Inhibition of ADP (0.5µM),[2]; [8],26%
same,% Inhibition of ADP 1μM,[2]; [9],0%
same,Dose-ratio vs. ADP,[2]; [3],1.4*
"O=c1c2ccccc2sn1CCCN1CCCCC1 [Compound B, 2-[3-(1-piperidyl)propyl]-1,2-benzisothiazol-3-one]",Dose-ratio vs. Coll.,[1]; [4],9.0*
same,Dose-ratio vs. Coll.,[1]; [14],9.0*
same,% Inhibition of ADP (0.5µM),[2]; [10],57* %
same,Dose-ratio vs. ADP,[2]; [4],1.7*
same,% Inhibition of ADP (0.5µM),[2]; [15],57* %
same,Dose-ratio vs. ADP,[2]; [14],1.7*
"COc1cc2sn(CCN3CC4CCC(CC4)C3)c(=O)c2cc1OC [Compound C, 2-[2-(3-azabicyclo[3.2.2]non-3-yl)ethyl)-5,6-dimethoxy-1,2-benzisothiazol-3-one]",Dose-ratio vs. Coll.,[1]; [5],>13.9*
same,% Inhibition of ADP (0.5µM),[2]; [11],92* %
same,Dose-ratio vs. ADP,[2]; [5],3.3*
"COc1cc2sn(CCCCN3CC4CCC(CC4)C3)c(=O)c2cc1OC [Compound D Aspirinate Salt, Aspirin salt of 2-(4-(3-azabicyclo[3.2.2.]non-3-yl)butyl)-5,6-dimethoxy-1,2-benzisothiazol-3-one]",Dose-ratio vs. Coll.,[1]; [7],>57*
same,% Inhibition of ADP (0.5µM),[2]; [13],91* %
same,Dose-ratio vs. ADP,[2]; [7],4.6*
"COc1cc2sn(CCCCN3CC4CCC(CC4)C3)c(=O)c2cc1OC [Compound D, 2-[4-(3-azabicyclo[3.2.2]non-3-yl)butyl]-5,6-dimethoxy-1,2-benzisothiazol-3-one]",Dose-ratio vs. Coll.,[1]; [6],5.4*
same,Dose-ratio vs. Coll.,[1]; [7],>15.4*
same,% Inhibition of ADP (0.5µM),[2]; [12],86* %
same,Dose-ratio vs. ADP,[2]; [6],2.6*
same,% Inhibition of ADP (0.5µM),[2]; [13],61* %
same,Dose-ratio vs. ADP,[2]; [7],3.2*
"COc1ccc2c(c1)c(CC(=O)O)c(C)n2C(=O)c1ccc(Cl)cc1 [Indo-methacin, Indomethacin, reference compound]",Dose-ratio vs. Coll.,[1]; [14],1.7*
same,% Inhibition of ADP (0.5µM),[2]; [15],0%
same,Dose-ratio vs. ADP,[2]; [14],1.1
